“And” between values parts separate entries of the source, which are not always exact repeats. Identical values can stand only once. Toxic doses and inconclusive results are not listed.

The test system of the assay is P388 leukemia ip, CD2F1 mice, survival T/C. The assay is described as follows: NCI In Vivo Anticancer Drug Screen. Data for tumor model P388 Leukemia (intraperitoneal) in CD2F1 (CDF1) mice. The note with it: endpoint: median survival time, higher = longer survival. The method, boiled down:
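Mice carrying the transplanted tumor received test compound or vehicle. Survival was recorded in each group, and the value is the treated-group measurement divided by that of the vehicle-treated control group.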

Where [1] appears, read: dose: 60.0 mg/kg/injection, schedule: Q01DX005 (ip), vehicle: saline with Tween-80.
[2] abbreviates: dose: 120.0 mg/kg/injection, schedule: Q01DX005 (ip), vehicle: saline with Tween-80.
Where [3] appears, read: dose: 240.0 mg/kg/injection, schedule: Q01DX005 (ip), vehicle: saline with Tween-80.
The mark [4] stands for this setting: dose: 60.0 mg/kg/injection, schedule: Q01DX005 (ip), vehicle: saline.
Setting [5] is: dose: 120.0 mg/kg/injection, schedule: Q01DX005 (ip), vehicle: saline.
Where [6] appears, read: dose: 100.0 mg/kg/injection, schedule: Q04DX003 (ip), vehicle: saline.
Where [7] appears, read: dose: 100.0 mg/kg/injection, schedule: Q01DX009 (ip), vehicle: saline with Tween-80.
Setting [8] is: dose: 200.0 mg/kg/injection, schedule: Q01DX009 (ip), vehicle: saline with Tween-80.
[9] abbreviates: dose: 50.0 mg/kg/injection, schedule: Q01DX005 (ip), vehicle: saline with Tween-80.
[10] abbreviates: dose: 100.0 mg/kg/injection, schedule: Q01DX005 (ip), vehicle: saline with Tween-80.
Where [11] appears, read: dose: 200.0 mg/kg/injection, schedule: Q01DX005 (ip), vehicle: saline with Tween-80.
Where [12] appears, read: dose: 25.0 mg/kg/injection, schedule: Q01DX005 (ip), vehicle: Klucel (hydroxypropylcellulose) (HPC).
Where [13] appears, read: dose: 50.0 mg/kg/injection, schedule: Q01DX005 (ip), vehicle: Klucel (hydroxypropylcellulose) (HPC).
The mark [14] stands for this setting: dose: 100.0 mg/kg/injection, schedule: Q01DX005 (ip), vehicle: Klucel (hydroxypropylcellulose) (HPC).
Where [15] appears, read: dose: 200.0 mg/kg/injection, schedule: Q01DX005 (ip), vehicle: Klucel (hydroxypropylcellulose) (HPC).
The mark [16] stands for this setting: dose: 50.0 mg/kg/injection, schedule: Q01DX009 (ip), vehicle: saline.
[17] abbreviates: dose: 100.0 mg/kg/injection, schedule: Q01DX009 (ip), vehicle: saline.
The mark [18] stands for this setting: dose: 50.0 mg/kg/injection, schedule: Q01DX009 (ip), vehicle: other.
[19] abbreviates: dose: 100.0 mg/kg/injection, schedule: Q01DX009 (ip), vehicle: other.
[20] abbreviates: dose: 200.0 mg/kg/injection, schedule: Q01DX009 (ip), vehicle: other.

As to `CC1=C(CCC(=O)O)c2cc3nc(cc4[nH]c(cc4C)cc4[nH]c(cc1n2)cc4C)C(C)(C)C3CCC(=O)O` (configuration not stated), the T/C (dose: 3.0 mg/kg/injection, schedule: Q01DX009 (ip), vehicle: Klucel (hydroxypropylcellulose) (HPC)) is 97 % of control; the T/C (dose: 6.0 mg/kg/injection, schedule: Q01DX009 (ip), vehicle: Klucel (hydroxypropylcellulose) (HPC)) is 92 % of control; the T/C (dose: 12.0 mg/kg/injection, schedule: Q01DX009 (ip), vehicle: Klucel (hydroxypropylcellulose) (HPC)) is 90 % of control; the T/C (dose: 24.0 mg/kg/injection, schedule: Q01DX009 (ip), vehicle: Klucel (hydroxypropylcellulose) (HPC)) is 87 % of control.
For the compound `COc1ccc(C(=O)C2=C(C)Nc3ccc(Br)cc3S2)cc1`, the T/C reads like this: under setting [1], 101 % of control; under setting [2], 110 % of control; under setting [3], 105 % of control.
With `CO[C@H]1C[C@H]2CC[C@@]1(C)C2(C)C`, the T/C under setting [4] is 104 % of control; the T/C under setting [5] was 104 % of control; the T/C (dose: 240.0 mg/kg/injection, schedule: Q01DX005 (ip), vehicle: saline) was 100 % of control.
Take `C[n+]1cccc2ccccc21`: the T/C under setting [6] was 109 % of control.
With `[NH-]CC[NH-].[NH-]CC[NH-].[NH-]CC[NH-].[Ni]`, the T/C reads like this: (dose: 6.25 mg/kg/injection, schedule: Q01DX009 (ip), vehicle: saline) 90 % of control; (dose: 12.5 mg/kg/injection, schedule: Q01DX009 (ip), vehicle: saline) 90 % of control.
With `CC[CH2][Sn]([Cl])([Cl])[CH2]CC.Oc1ccccc1C=NCCN=Cc1ccccc1O`, the T/C is 111 % of control (dose: 0.6 mg/kg/injection, schedule: Q01DX009 (ip), vehicle: gum acacia) and 159 % of control (dose: 5.0 mg/kg/injection, schedule: Q01DX009 (ip), vehicle: gum acacia).
`C=C1C(=O)OC2/C=C(\C)CC/C=C(\C=O)C(OC(=O)C(C)C)C(OC(=O)C(C)(C)O)C12` (configuration not stated): the T/C (dose: 5.0 mg/kg/injection, schedule: Q01DX009 (ip), vehicle: other) was 116 % of control; the T/C (dose: 10.0 mg/kg/injection, schedule: Q01DX009 (ip), vehicle: other) was 112 % of control; the T/C (dose: 20.0 mg/kg/injection, schedule: Q01DX009 (ip), vehicle: other) is 112 % of control.
Take `Cc1[nH]c(=O)[nH]c(=O)c1C(=O)O`: the T/C (dose: 50.0 mg/kg/injection, schedule: Q01DX009 (ip), vehicle: saline with Tween-80) is 100 % of control; the T/C under setting [7] is 105 % of control; the T/C under setting [8] is 99 % of control.
For the compound `C=C(C)CC1(CCCCCCCCCC)C(=O)NC(=O)NC1=O`, the T/C reads like this: (dose: 50.0 mg/kg/injection, schedule: Q04DX003 (ip), vehicle: saline with Tween-80) 105 % of control; (dose: 100.0 mg/kg/injection, schedule: Q04DX003 (ip), vehicle: saline with Tween-80) 102 % of control; (dose: 200.0 mg/kg/injection, schedule: Q04DX003 (ip), vehicle: saline with Tween-80) 93 % of control.
Take `C=CCOC(=O)OCCCO`: the T/C was 105 % of control under setting [4] and 99 % of control under setting [5].
As for `Cc1ccc(C2SCC(=O)N2CCN2C(=O)CSC2c2ccc(C)s2)s1` (configuration not stated), the T/C was 101 % of control under setting [9], 109 % of control under setting [10] and 100 % of control under setting [11].
For the compound `NN1CCCC1`, the T/C runs as follows: under setting [6], 90 % of control; (dose: 200.0 mg/kg/injection, schedule: Q04DX003 (ip), vehicle: saline) 95 % of control.
In the case of `NNC(=O)C12CC3CC(CC(C3)C1)C2`, the T/C by setting is: under setting [12], 105 % of control; under setting [13], 105 % of control; under setting [14], 102 % of control; under setting [15], 112 % of control.
With `O=C1C(=O)c2cccc([N+](=O)[O-])c2-c2ccccc21`, the T/C was 104 % of control and 106 % of control (dose: 12.5 mg/kg/injection, schedule: Q01DX005 (ip), vehicle: saline with Tween-80); 101 % of control and 115 % of control (dose: 25.0 mg/kg/injection, schedule: Q01DX005 (ip), vehicle: saline with Tween-80); 107 % of control and 118 % of control under setting [9]; 104 % of control (2×) and 95 % of control under setting [10].
On to `CC(C)Cc1c[nH]c(=O)[nH]c1=O`, for which the T/C runs as follows: under setting [7], 95 % of control; under setting [8], 95 % of control; (dose: 400.0 mg/kg/injection, schedule: Q01DX009 (ip), vehicle: saline with Tween-80) 91 % of control.
As for `COc1ccc(N=Nc2c(C)nn(C(N)=S)c2C)cc1`, the T/C reads like this: (dose: 100.0 mg/kg/injection, schedule: Q04DX002 (ip), vehicle: Klucel (hydroxypropylcellulose) (HPC)) 93 % of control; (dose: 200.0 mg/kg/injection, schedule: Q04DX002 (ip), vehicle: Klucel (hydroxypropylcellulose) (HPC)) 92 % of control; (dose: 400.0 mg/kg/injection, schedule: Q04DX002 (ip), vehicle: Klucel (hydroxypropylcellulose) (HPC)) 94 % of control.
For the compound `COc1ccc(CN2CCc3c(cccc3[N+](=O)[O-])C2)cc1`, the T/C is 98 % of control (dose: 100.0 mg/kg/injection, schedule: Q04DX003 (ip), vehicle: Klucel (hydroxypropylcellulose) (HPC)); 103 % of control (dose: 200.0 mg/kg/injection, schedule: Q04DX003 (ip), vehicle: Klucel (hydroxypropylcellulose) (HPC)); 96 % of control (dose: 400.0 mg/kg/injection, schedule: Q04DX003 (ip), vehicle: Klucel (hydroxypropylcellulose) (HPC)).
Consider `NC(N)=NCCSCc1ccc2ccccc2n1`, for which the T/C (dose: 50.0 mg/kg/injection, schedule: Q01DX005 (ip), vehicle: saline) is 94 % of control and the T/C (dose: 100.0 mg/kg/injection, schedule: Q01DX005 (ip), vehicle: saline) is 101 % of control.
Regarding `CCOC(=O)Cc1csc(=S)n1C`, the T/C by setting is: under setting [9], 102 % of control; under setting [10], 109 % of control; under setting [11], 109 % of control.
`C(=C\c1cccs1)/c1ccnnc1`: the T/C is 101 % of control (dose: 25.0 mg/kg/injection, schedule: Q01DX009 (ip), vehicle: saline); 99 % of control under setting [16]; 86 % of control and 96 % of control under setting [17].
In the case of `c1ccc(CCn2c(-c3ccccn3)nc3ccccc32)nc1`, the T/C was 105 % of control under setting [12], 99 % of control under setting [13] and 99 % of control under setting [14].
As for `COc1ccc2nccc3c2c1NC(Cl)=C3`, the T/C reads like this: (dose: 60.0 mg/kg/injection, schedule: Q01DX005 (ip), vehicle: Klucel (hydroxypropylcellulose) (HPC)) 97 % of control; (dose: 120.0 mg/kg/injection, schedule: Q01DX005 (ip), vehicle: Klucel (hydroxypropylcellulose) (HPC)) 103 % of control; (dose: 240.0 mg/kg/injection, schedule: Q01DX005 (ip), vehicle: Klucel (hydroxypropylcellulose) (HPC)) 97 % of control.
On to `COc1ccccc1/C=N/N1C(=O)C2C3C=CC(O3)C2C1=O` (configuration not stated), for which the T/C is 104 % of control under setting [9], 89 % of control under setting [10] and 93 % of control under setting [11].
As to `COC(=O)C(C)Oc1ccc(OC#N)cc1` (configuration not stated), the T/C was 102 % of control under setting [1], 101 % of control under setting [2] and 93 % of control under setting [3].
Take `CC(C)(C)OC(=O)NNS(=O)(=O)CCC(NC(=O)OCc1ccccc1)C(=O)OCc1ccccc1` (configuration not stated): the T/C reads like this: (dose: 12.5 mg/kg/injection, schedule: Q01DX009 (ip), vehicle: other) 100 % of control; (dose: 25.0 mg/kg/injection, schedule: Q01DX009 (ip), vehicle: other) 97 % of control; under setting [18], 92 % of control; under setting [19], 88 % of control; under setting [20], 90 % of control.
Regarding `CC(C)c1ccc(N2C=Nc3ccc(C(C)C)cc3C2)cc1`, the T/C is 92 % of control under setting [18], 99 % of control under setting [19] and 99 % of control under setting [20].
Regarding `CC(C)N(CCCO)CCCO`, the T/C is 97 % of control under setting [16]; 93 % of control under setting [17]; 102 % of control (dose: 200.0 mg/kg/injection, schedule: Q01DX009 (ip), vehicle: saline).
As to `CC(NC(=O)C(Cl)Cl)C(=O)O` (configuration not stated), the T/C runs as follows: under setting [13], 96 % of control; under setting [14], 99 % of control; under setting [15], 96 % of control.

Source of the values: PubChem BioAssay AID330 (DTP/NCI, 2004).
